The target of this assay is Beta-1/Beta-2/Beta-3 adrenergic receptor (Rattus norvegicus, UniProt P10608+P18090+P26255). Put plainly: Binding affinity against Beta adrenergic receptor using [3H]dihydroalprenolol radioligand in rat brain homogenate.

The term IC50 denotes the point on the concentration scale where inhibition reaches its midpoint. Low readings indicate greater potency, high ones weaker potency.

Beta-1/Beta-2/Beta-3 adrenergic receptor, sequence (P18090 whole entry): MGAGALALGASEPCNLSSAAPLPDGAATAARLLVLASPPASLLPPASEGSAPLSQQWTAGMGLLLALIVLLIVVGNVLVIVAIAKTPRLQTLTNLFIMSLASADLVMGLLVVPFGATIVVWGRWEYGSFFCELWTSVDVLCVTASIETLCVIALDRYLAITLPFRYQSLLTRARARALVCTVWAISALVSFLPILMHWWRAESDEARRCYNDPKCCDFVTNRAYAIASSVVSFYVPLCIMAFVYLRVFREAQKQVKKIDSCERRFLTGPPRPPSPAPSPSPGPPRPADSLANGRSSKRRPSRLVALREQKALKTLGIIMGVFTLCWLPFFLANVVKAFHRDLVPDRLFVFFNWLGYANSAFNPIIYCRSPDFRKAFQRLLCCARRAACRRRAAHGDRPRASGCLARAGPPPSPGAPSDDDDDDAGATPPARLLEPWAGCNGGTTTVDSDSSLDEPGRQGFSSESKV
Beta-1/Beta-2/Beta-3 adrenergic receptor, sequence (P26255 whole entry): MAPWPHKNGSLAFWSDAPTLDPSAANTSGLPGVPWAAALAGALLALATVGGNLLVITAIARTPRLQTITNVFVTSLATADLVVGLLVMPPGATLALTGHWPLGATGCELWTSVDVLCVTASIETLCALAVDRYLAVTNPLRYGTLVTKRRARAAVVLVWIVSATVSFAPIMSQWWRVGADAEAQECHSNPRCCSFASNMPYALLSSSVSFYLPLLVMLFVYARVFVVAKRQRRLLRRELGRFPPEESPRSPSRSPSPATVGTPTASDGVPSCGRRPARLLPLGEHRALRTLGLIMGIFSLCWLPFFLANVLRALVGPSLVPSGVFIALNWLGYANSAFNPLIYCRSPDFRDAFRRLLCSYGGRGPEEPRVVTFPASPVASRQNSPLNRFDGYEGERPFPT
Beta-1/Beta-2/Beta-3 adrenergic receptor, sequence (P10608 whole entry): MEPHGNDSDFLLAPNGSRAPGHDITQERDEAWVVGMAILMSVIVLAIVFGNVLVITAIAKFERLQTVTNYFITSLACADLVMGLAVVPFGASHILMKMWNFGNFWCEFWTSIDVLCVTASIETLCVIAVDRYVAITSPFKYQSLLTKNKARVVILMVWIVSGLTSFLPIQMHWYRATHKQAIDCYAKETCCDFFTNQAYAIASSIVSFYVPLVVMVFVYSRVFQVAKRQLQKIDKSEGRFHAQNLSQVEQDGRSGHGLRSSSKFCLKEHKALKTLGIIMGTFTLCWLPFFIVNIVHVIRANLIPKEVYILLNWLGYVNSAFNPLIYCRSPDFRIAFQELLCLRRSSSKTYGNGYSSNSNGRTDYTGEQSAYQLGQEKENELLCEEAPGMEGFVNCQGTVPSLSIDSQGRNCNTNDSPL

As to `CNCC(c1ccc(O)c(O)c1)S(=O)(=O)O` (configuration not stated), the IC50 was determined as 110 µM.
Then `NCC(c1ccc(O)c(O)c1)S(=O)(=O)O` (configuration not stated), with 130 µM.
